Consider 1 compound from publication PMC12571071, “Preventing neuropathy and improving anticancer chemotherapy with a carbazole-based compound” (Science Advances, 2025).

In one data set the test system is HeLa cells. Put plainly: HeLa cell viability (PrestoBlue) assay, 72 h. In kind it is cell-based, human. As for the experimental part: The human HeLa cell line was tested negative for mycoplasma contamination. HeLa cells were grown in RPMI 1640 medium supplemented with penicillin/streptomycin (100 μg/ml) and 10% FBS and maintained in a humidified incubator at 37°C and 5% CO2.
Cell viability was analyzed using the colorimetric PrestoBlue assay. Cells were seeded in 96-well microplates at a density of 7500 cells per well, allowed to adhere for 24 hours, and treated for 72 hours with either DMSO or drugs at indicated concentrations. PrestoBlue (10 μl) was then added to each well, followed by a 30-min incubation. Fluorescence was measured using a FLUOstar Optima microplate reader (excitation, 544 nm; emission, 580 nm; BMG Labtech).

A further data set has as its system DRG explants. Put plainly: Mouse embryonic 3D DRG explants: axonal degeneration and myelination (MBP/TUBB3). In kind it is cell-based. The conditions noted are these: 72 h. As for the experimental part:
Embryonic DRG 3D explants were prepared from E13.5 mouse embryos and seeded at one explant/1.9 cm^2 on acid-treated, Matrigel-coated glass coverslips ([64], [65]). Explants were cultured at 37°C under 5% CO2 and high saturated in humidity. From DIV 0 to DIV 3, cultures were maintained in C-medium supplemented with 10% FBS, 1× GlutaMAX, D-glucose (4 g/liter), 2.5S nerve growth factor (NGF; 50 ng/ml), and 1% penicillin/streptomycin. From DIV 3 to DIV 7, neurobasal medium supplemented with 1× B27, 1× GlutaMAX, D-glucose (4 g/liter), 2.5S NGF (50 ng/ml), and 1% penicillin/streptomycin was used to promote axon development. From DIV 7 onward, differentiation medium [C-medium supplemented with 5 μM forskolin, ascorbic acid (50 μg/ml), and heparin (25 μg/ml)] was used to support glial cell maturation and myelination, with medium changes occurring every 2 days.
DRGs were fixed with 10% formalin for 20 min at R.T., washed with PBS, and permeabilized for 10 min with PBS–0.1% Triton X-100. Blocking was performed using a solution of 3% bovine serum albumin (BSA), 0.1% glycine, and 5% goat preimmune serum in PBS for 2 hours at R.T. DRGs were then washed in PBS and incubated overnight at 4°C with of anti-TUBB3 (1 μg/ml) and anti-MBP (1 μg/ml). After PBS washes, secondary antibodies (goat anti-mouse Alexa Fluor 488, 1:1000, and goat anti-rabbit Alexa Fluor 647, 1:1000) were applied for 1 hour at R.T. Explants were mounted with ProLong Gold antifade reagent with 4′,6-diamidino-2-phenylindole (DAPI).
Images of random fields of DRG explants, fixed in 4% formaldehyde and immunostained for TUBB3 and MBP, were captured with consistent acquisition times across samples, using a Zeiss AxioImager M2 microscope, equipped with a Hamamatsu Orca R2 camera. Image analysis was performed using Fiji software. The images were thresholded using the default global autothreshold method. For each field, MBP^+ segments were counted and normalized to the TUBB3^+ area.

`Cc1cc(-n2cccc2)c(C)c2c1[nH]c1ccc(Cl)cc12` [Compound 1]: the “relief of FK866 cytotoxicity” value in the data set on HeLa cells (HeLa cells, coadministration with FK866) is “counteracted the toxic effect of FK866 in a dose-dependent manner”. Moreover, the 50% growth inhibitory concentration (GI50) with HeLa cells (Homo sapiens, HeLa, cell viability, compound alone, read-out: GI50) is > 25 µM. In addition, in the data set with HeLa cells (ratio at the highest noncytotoxic dose of carbazole analog, readout of NAMPT activation), the “GI50 FK866 with carbazole/GI50 FK866” value amounted to 2.6. In addition, in the data set on HeLa cells (ratio at the highest noncytotoxic dose of carbazole analog, synergy with PTX), the “GI50 PTX/GI50 PTX with carbazole” value is listed as 2.5. Further, in the data set with DRG explants (12 μM Carba1 with 500 nM PTX), the “fragmented axons in DRG explants under PTX” value was “reduced number of fragmented axons” and the “myelin staining, Carba1 combined with PTX vs PTX alone” value is given as “substantially improved”. For the same compound, in the data set with DRG explants (Carba1 12 μM or PTX 500 nM), the “MBP staining (axonal myelination), agent alone” value is reported as “had no effect”.
